Among the data in patent US10131679B2, “Substituted dihydropyrrolopyrazole compound” (UBE INDUSTRIES, LTD., priority 2014, dated 2018) are inhibition in vivo and Ki values, retold here.

The subject of experiment [1] is mouse imiquimod-induced psoriasis model. The experiment in a line: Ear thickening suppression test using mouse imiquimod-induced psoriasis model. It is filed as in vivo. Conditions: topical, 120 h, application of a 0.01% methanol solution for 4 days, thickness measured on day 5, BALB/c mice, read-out: rate of inhibition of increase in right auricle thickness. The protocol:
Ear Thickening Suppression Test Using Mouse Imiquimod-Induced Psoriasis Model
An imiquimod-induced psoriasis model test was carried out by modifying the method of Leslie van der Fits et al. (J. Immunol. 182, 5836 (2009)). BALB/c mice were used (female, supplied by Charles River Laboratories Japan, Inc.) as laboratory animals. On the start day of the test, the thicknesses of the right auricles of the mice were measured with a thickness gauge (model SMD-565J manufactured by TECLOCK Corp.). A test compound solution or only a solvent was applied or orally administered, and after 60 minutes, 5 mg of imiquimod (Beselna Cream 5% manufactured by Mochida Pharmaceutical Co., Ltd.) was applied to the insides of the right auricles. The test compound solution or solvent administration and the imiquimod application were carried out for 4 days, and the thicknesses of the right auricles were measured again on day 5. When increase in the thicknesses of the right auricles of the solvent-administered group on day 5 was defined as 100%, the rate of inhibition of increase (%) at each dose of the test compound was calculated.

The target of the next experiment is T1, CDK2 (Homo sapiens, UniProt P24941).
T1 construct: purchased Invitrogen Corp. PV3267
The experiment in a line: CDK2 enzyme inhibition test. It is filed as biochemical. Particulars: Ki=IC50/(1+S/Km); 33P bound to MBP, [γ-33P]ATP, 30° C. for 20 minutes; read-out: Ki value of CDK2 inhibitory activity. The protocol:
CDK2 Enzyme Inhibition Test
The preparation of a buffer solution was performed by mixing a HEPES buffer solution (pH 7.4), DTT, Triton X-100, and MgCl2. A 500 μM [γ-^33P]ATP solution was used by diluting a 10 mM ATP solution and a commercially available [γ-^33P]ATP solution (manufactured by PerkinElmer, Inc., Code No. NEG-302H) with the buffer solution. A CDK2 solution was used by diluting commercially available CDK2 (manufactured by Invitrogen Corp., Catalog No. PV3267) with the buffer solution. A substrate solution was used by diluting MBP with the buffer solution. As for the preparation of a reaction solution, the buffer solution, the 500 μM [γ-^33P]ATP solution, the CDK2 solution, and the substrate solution were mixed at 4° C. to obtain a reaction solution.
(§1) CDK2 enzyme reaction was performed by adding 5 μL of a test compound solution prepared with 10% DMSO/90% injectable distilled water, and 45 μL of the reaction solution in a 1.5 mL microtube at 4° C. and reacting in the microtube at 30° C. for 20 minutes in a water bath incubator. After the reaction, a 10% aqueous TCA solution was added to each microtube while cooled to 4° C., and mixed to terminate the reaction. The resultant was left standing at 4° C. for 10 minutes and then centrifuged in a centrifuge, and the supernatant was discarded. Next, a 2% aqueous TCA solution was added, mixed thereto, and then centrifuged in a centrifuge, and the supernatant was discarded. This washing operation was performed twice. After the washing, precipitates were dissolved in a 1 N aqueous NaOH solution, and the radioactivity was measured with a liquid scintillation counter.
The calculation of the inhibitory activity of the test compound against CDK2 was performed as a test compound concentration inhibiting 50% of the amount of ^33P bound to MBP (IC50 value) by using EXSUS (version 8.0.0 or version 8.0.1, manufactured by CAC Exicare Corp.).
(§2) The calculation of a Ki value was performed according to the following calculation expression. S means the concentration of ATP contained in the reaction solution, and Km means a Michaelis-Menten constant. Ki=IC50/(1+S/Km)

For another experiment, the target named is T2, PAK4 (Homo sapiens, UniProt O96013).
T2 construct: purchased Invitrogen Corp. PV4212
T2 sequence (O96013 whole entry): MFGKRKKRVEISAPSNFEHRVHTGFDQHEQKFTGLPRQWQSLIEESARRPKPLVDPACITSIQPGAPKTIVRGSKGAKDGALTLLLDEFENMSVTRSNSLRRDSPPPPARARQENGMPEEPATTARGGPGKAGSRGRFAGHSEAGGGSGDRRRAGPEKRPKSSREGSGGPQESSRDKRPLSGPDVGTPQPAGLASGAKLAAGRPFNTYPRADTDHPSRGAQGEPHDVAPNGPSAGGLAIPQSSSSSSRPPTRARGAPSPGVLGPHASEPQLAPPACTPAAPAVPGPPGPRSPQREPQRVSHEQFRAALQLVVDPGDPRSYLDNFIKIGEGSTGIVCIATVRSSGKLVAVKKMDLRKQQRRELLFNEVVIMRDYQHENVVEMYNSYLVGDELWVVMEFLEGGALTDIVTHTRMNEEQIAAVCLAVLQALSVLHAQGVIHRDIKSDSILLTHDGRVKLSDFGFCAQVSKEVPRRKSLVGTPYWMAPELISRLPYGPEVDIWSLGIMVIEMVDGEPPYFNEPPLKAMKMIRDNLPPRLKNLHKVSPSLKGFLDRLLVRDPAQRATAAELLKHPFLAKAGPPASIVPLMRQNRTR
The experiment in a line: PAK4 enzyme inhibition test. It is filed as biochemical. Conditions: Ki=IC50/(1+S/Km); 33P bound to MBP, [γ-33P]ATP, 30° C. for 20 minutes; read-out: Ki value of PAK4 inhibitory activity. The protocol: PAK4 Enzyme Inhibition Test
The preparation of a buffer solution was performed by mixing a trishydroxyaminomethane buffer solution (Tris buffer solution) (pH 7.5), DTT, Triton X-100, MgCl2, ethylene glycol bis(β-aminoethyl ether)-N,N,N′,N′-tetraacetic acid (EGTA), (3-glycerol phosphate, and sodium orthovanadate(V). A 40 μM [γ-^33P]ATP solution was used by diluting a 10 mM ATP solution and a commercially available [γ-^33P]ATP solution (manufactured by PerkinElmer, Inc., Code No. NEG-302H) with the buffer solution. A PAK4 solution was used by diluting commercially available PAK4 (manufactured by Invitrogen Corp., Catalog No. PV4212) with the buffer solution. A substrate solution was used by diluting MBP with the buffer solution. As for the preparation of a reaction solution, the buffer solution, the 40 μM [γ-^33P]ATP solution, the PAK4 solution, and the substrate solution were mixed at 4° C. to obtain a reaction solution.
as §1, with “PAK4” for “CDK2”, “mixed,” for “mixed thereto,”
The calculation of the inhibitory activity of the test compound against PAK4 was performed as a test compound concentration inhibiting 50% of the amount of ^33P bound to MBP (IC50 value) by using EXSUS (version 8.0.0 or version 8.0.1, manufactured by CAC Exicare Corp.).
as §2

In the case of `CC1(C)c2[nH]nc(NC(=O)C3([Si](C)(C)C)CCC3)c2CN1C(=O)[C@H](OC(F)F)c1ccccc1` [IV-1180, (R)—N-{5-[2-(Difluoromethoxy)-2-phenylacetyl]-6,6-dimethyl-1,4,5,6-tetrahydropyrrolo[3,4-c]pyrazol-3-yl}-1-(trimethylsilyl)cyclobutanecarboxamide], the inhibition in vivo at 0.01 % in experiment [1] was ≥ 50%.

What is called Ki is the equilibrium dissociation constant of an inhibitor or competing ligand from its target. On to `CC1(C)c2[nH]nc(NC(=O)C3([Si](C)(C)C)CCC3)c2CN1C(=O)C(CO)c1ccccc1` (centres unmarked) [IV-632, N-[5-(3-Hydroxy-2-phenylpropanoyl)-6,6-dimethyl-1,4,5,6-tetrahydropyrrolo[3,4-c]pyrazol-3-yl]-1-(trimethylsilyl)cyclobutanecarboxamide], for which the values for the Ki at CDK2 and on PAK4 were ≥ 1000 nM and ≥ 500 nM, respectively.

`CC1(C)c2[nH]nc(NC(=O)C3([Si](C)(C)C)CCC3)c2CN1C(=O)NCC(O)c1ccccc1` (centres unmarked) [IV-450, N-(2-Hydroxy-2-phenylethyl)-6,6-dimethyl-3-[1-(trimethylsilyl)cyclobutanecarboxamido]-4,6-dihydropyrrolo[3,4-c]pyrazole-5(1H)-carboxamide]: the results for the Ki on CDK2 and on PAK4 were ≥ 1000 nM and ≥ 500 nM, respectively.

With `CC1(C)c2[nH]nc(NC(=O)C3([Si](C)(C)C)CCC3)c2CN1C(=O)N[C@H](CCCO)c1ccccc1` [IV-283, (R)—N-(4-Hydroxy-1-phenylbutyl)-6,6-dimethyl-3-[1-(trimethylsilyl)cyclobutanecarboxamido]-4,6-dihydropyrrolo[3,4-c]pyrazole-5(1H)-carboxamide], the Ki on CDK2 was ≥ 1000 nM; at PAK4, ≥ 500 nM.

Consider `CC(C)[C@@H](CO)NC(=O)N1Cc2c(NC(=O)C3([Si](C)(C)C)CCC3)n[nH]c2C1(C)C` [IV-475, (S)—N-(1-Hydroxy-3-methylbutan-2-yl)-6,6-dimethyl-3-[1-(trimethylsilyl)cyclobutanecarboxamido]-4,6-dihydropyrrolo[3,4-c]pyrazole-5(1H)-carboxamide], for which the figures for the Ki at CDK2 and on PAK4 were ≥ 1000 nM and ≥ 500 nM, respectively.

`CC1(C)c2[nH]nc(NC(=O)C(C)(C)[Si](C)(C)C)c2CN1C(=O)N[C@H](CO)c1ccccc1` [II-114, (S)—N-(2-Hydroxy-1-phenylethyl)-6,6-dimethyl-3-[2-methyl-2-(trimethylsilyl)propanamido]-4,6-dihydropyrrolo[3,4-c]pyrazole-5(1H)-carboxamide]: the Ki was ≥ 1000 nM at CDK2 and ≥ 500 nM on PAK4.

With `CC[Si](C)(C)C1(C(=O)Nc2n[nH]c3c2CN(C(=O)N[C@H](CO)c2ccccc2)C3(C)C)CCC1` [IV-117, (S)-3-[1-(Ethyldimethylsilyl)cyclobutanecarboxamido]-N-(2-hydroxy-1-phenylethyl)-6,6-dimethyl-4,6-dihydropyrrolo[3,4-c]pyrazole-5(1H)-carboxamide], the values for the inhibitory constant (Ki) at CDK2 and on PAK4 were ≥ 1000 nM and ≥ 500 nM, respectively.

Consider `CC(C)(O)[C@@H](NC(=O)N1Cc2c(NC(=O)C3([Si](C)(C)C)CCC3)n[nH]c2C1(C)C)c1ccccc1` [IV-171, (S)—N-(2-Hydroxy-2-methyl-1-phenylpropyl)-6,6-dimethyl-3-[1-(trimethylsilyl)cyclobutanecarboxamido]-4,6-dihydropyrrolo[3,4-c]pyrazole-5(1H)-carboxamide], for which the Ki on CDK2 is ≥ 1000 nM; at PAK4, ≥ 500 nM.

With `C[C@@H](CO)NC(=O)N1Cc2c(NC(=O)C3([Si](C)(C)C)CCC3)n[nH]c2C1(C)C` [IV-455, (S)—N-(1-Hydroxypropan-2-yl)-6,6-dimethyl-3-[1-(trimethylsilyl)cyclobutanecarboxamido]-4,6-dihydropyrrolo[3,4-c]pyrazole-5(1H)-carboxamide], the figures for the Ki at CDK2 and at PAK4 were ≥ 1000 nM and ≥ 500 nM, respectively.

As to `CN(C(=O)N1Cc2c(NC(=O)C3([Si](C)(C)C)CCC3)n[nH]c2C1(C)C)[C@H](CO)c1ccccc1` [IV-119, (S)—N-(2-Hydroxy-1-phenylethyl)-N,6,6-trimethyl-3-[1-(trimethylsilyl)cyclobutanecarboxamido]-4,6-dihydropyrrolo[3,4-c]pyrazole-5(1H)-carboxamide], the Ki is ≥ 1000 nM on CDK2 and ≥ 500 nM at PAK4.

Take `CC1(C)c2[nH]nc(NC(=O)C3([Si](C)(C)C)CCC3)c2CN1C(=O)N[C@H](CO)C1CCCCC1` [IV-495, (S)—N-(1-Cyclohexyl-2-hydroxyethyl)-6,6-dimethyl-3-[1-(trimethylsilyl)cyclobutanecarboxamido]-4,6-dihydropyrrolo[3,4-c]pyrazole-5(1H)-carboxamide]: the Ki at CDK2 is ≥ 1000 nM; at PAK4, ≥ 500 nM.

Take `CC1(C)c2[nH]nc(NC(=O)C3([Si](C)(C)C)CCC3)c2CN1C(=O)N[C@H](CCCCO)c1ccccc1` [IV-291, (R)—N-(5-Hydroxy-1-phenylpentyl)-6,6-dimethyl-3-[1-(trimethylsilyl)cyclobutanecarboxamido]-4,6-dihydropyrrolo[3,4-c]pyrazole-5(1H)-carboxamide]: the Ki on CDK2 was ≥ 1000 nM; at PAK4, ≥ 500 nM.

Turning to `CC1(C)c2[nH]nc(NC(=O)C3([Si](C)(C)C)CC3)c2CN1C(=O)N[C@H](CO)c1ccccc1` [III-114, (S)—N-(2-Hydroxy-1-phenylethyl)-6,6-dimethyl-3-[1-(trimethylsilyl)cyclopropanecarboxamido]-4,6-dihydropyrrolo[3,4-c]pyrazole-5(1H)-carboxamide], the Ki is ≥ 1000 nM on CDK2 and ≥ 500 nM at PAK4.

With `CC1(C)c2[nH]nc(NC(=O)C3([Si](C)(C)C)CCC3)c2CN1C(=O)O[C@H](CO)c1ccccc1` [IV-2, (S)-2-Hydroxy-1-phenylethyl 6,6-dimethyl-3-[1-(trimethylsilyl)cyclobutanecarboxamido]-4,6-dihydropyrrolo[3,4-c]pyrazole-5(1H)-carboxylate], the results for the Ki on CDK2 and at PAK4 were ≥ 1000 nM and ≥ 500 nM, respectively.

Consider `CC1(C)c2[nH]nc(NC(=O)C3([Si](C)(C)C)CCC3)c2CN1C(=O)NCCO` [IV-438, N-(2-Hydroxyethyl)-6,6-dimethyl-3-[1-(trimethylsilyl)cyclobutanecarboxamido]-4,6-dihydropyrrolo[3,4-c]pyrazole-5(1H)-carboxamide], for which the Ki is ≥ 1000 nM on CDK2 and ≥ 500 nM at PAK4.
